Measured values as given in patent US20230399378A1, “PEPTIDE-BASED DELIVERY OF AGENTS” (THE FLOREY INSTITUTE OF NEUROSCIENCE AND MENTAL HEALTH, priority 2020, published 2023).

What was measured:
SMN2 [1] = experiment: SMN2 splice-switching for exon 7 inclusion by RT-qPCR in SMA Type I patient-derived fibroblasts (Example 2); format: cell-based, human; settings: for level of exon-7 inclusion activity (full length SMN2/HPRT1, normalised to untreated control set to 1): treated 4 hrs, then 20 hrs growth medium, mean±SEM
Source text: FIG. 3. (A) SMN2 pre-mRNA exon-7 skipping and production of 80-90% SMN2Δ7 mRNA transcripts. Peptide-PMO binding to Intron-splicing silencer (ISS-N1) and restoration of SMN2 splicing and production of full-length SMN2 mRNA transcripts. The positions of forward and reverse primers highlighted on full-length mRNA. (B)-(C) Effect of administration of peptides linked to PMO for SMN2 exon 7 inclusion, measured as change in the level of full length SMN2/HPRT1 in SMA patient-derived fibroblasts, each at two concentrations, 0.5 μM and 1 μM (or 1 μM and 5 μM in the case of PMO alone). UT, untreated. (B) For PMO constructs, from left to right: PMO; ApoE(141-150)-PMO; ApoE(133-150)-PMO. (C) For PMO constructs, from left to right: PMO; HA2-PMO; GALA-PMO; NLS-PMO; ApoE(141-150)-PMO; HA2-ApoE(141-150)-PMO; GALA-ApoE(141-150)-PMO; NLS-ApoE(141-150)-PMO; H4-ApoE(141-150)-PMO; A4-ApoE(141-150)-PMO. *P<0.05,**P<0.001, ***P<0.0001 cf. Untreated (control) and PMO (1 and 5 μM); #P<0.001 cf. GALA-/NLS-/H4-ApoE(141-150)-PMO (1 μM), ^<0.001 cf. ApoE(133-150)-PMO (0.5 and 1 μM), ^OP<0.001 cf. ApoE(141-150)-PMO (1 μM), ^&P<0.05 cf.
The inventors then evaluated cellular uptake and activity of these peptide-PMO conjugates in SMA Type I patient-derived fibroblasts with two copies of SMN2. Efficiency of uptake was assessed by RT-qPCR using SMN2 splice-switching for exon 7 inclusion (see FIG. 3A).
SMA Type I patient-derived fibroblasts (SMN2^+/+, GM03813, Coriell Cell Repositories) were maintained in Dulbecco's Modified Eagle's Medium (DMEM), supplemented with 10% foetal bovine serum (FBS), 1% Penicillin/Streptomycin and 1% L-glutamine (L-glu) at 37° C. Cells were plated in 6-well plates at a density of 3×10^5/well in 6 well plates one day prior to treatment with PMO and peptide-PMO conjugates. Cells used were from passage 8-22. PMO and the peptide-PMO conjugates were dissolved in nuclease-free water and diluted to appropriate concentrations in Opti-MEM reduced serum medium. Cells were treated for 4 hrs at 37° C. The transfection medium was then removed and replaced with growth medium in which the cells were incubated for 20 hrs.
Cells were washed with PBS and total cellular RNA was extracted using Trizol (TRI Reagent®, Sigma) according to the manufacturer's instructions (Life Technologies). 400 ng purified RNA was reverse transcribed into cDNA using BioRad iScript Reverse Transcription Supermix kit according to the manufacturer's instructions. The reverse transcription was performed using the Veriti Thermal Cycler (ThermoFisher Scientific) with the thermal cycling conditions: 25° C. for 5 min, 46° C. for 20 min, 95° C. for 1 min followed by a 4° C. holding period.
Quantitative PCR (20 ng cDNA/well) was carried out in a 96-well plate in triplicate using SsoAdvanced Universal SYBR Green Supermix on a Biorad CFX96 Touch™ Real-Time PCR detection system. The amplification was carried out using full-length SMN2-specific primers: Ex-6 Forward 5′-[…]-3′ (SEQ ID NO:10) and Ex7-8 reverse 5′[…]-3′ (SEQ ID NO:11). Human HPRT1 was used as the internal reference gene with forward primer sequence 5′-[…]-3′ (SEQ ID NO:12) and reverse primer sequence 5′-[…]-3′ (SEQ ID NO:13). The ΔΔCt method was used to correct the Ct values against the HPRT1 Ct values. The values obtained were normalised to the untreated control values which were set to 1. Statistical analysis was carried out using one-way ANOVA with post-hoc Bonferroni for multiple groups comparison (GraphPad Prism V.8, 2018). All data are expressed as mean±SEM from at least three independent experiments with p<0.05 considered significant.

fibroblasts = experiment: Viability of fibroblasts by MTS assay (cytotoxicity); format: cell-based, human
Experimental: FIG. 5. Effect of the endosomal escape domain HA2 and lipidation of peptide-PMO conjugates on the viability of fibroblasts determined using MTS assay. UT, untreated control.
The peptide-PMO conjugates were tested up to 10 μM which is 10-fold greater than the concentration needed to achieve a high level of activity.

[2] = system: SMA patient-derived fibroblasts; experiment: Confocal fluorescence uptake of Cy5-labelled peptide-PMO conjugates in SMA fibroblasts; format: cell-based, human; settings: 1 μM; for intracellular fluorescence pattern: 1 hr at 37° C.; for cellular uptake on addition of endosomal escape domain HA2: 1 hr, versus counterparts without HA2
Experimental: FIG. 4. Representative confocal fluorescence microscopy images of SMA patient-derived fibroblasts treated with 1 μM of Cy5-labelled: (A) ApoE(141-150)-PMO; (B) HA2-ApoE(141-150)-PMO; (C) ApoE(133-150)-PMO; and (D) HA2-ApoE(133-150)-PMO, for 1 hr at 37° C.
SMA fibroblasts (6.0×10^4 cells/well) were plated onto a p-Slide 4 Well Ph+ Glass Bottom chamber slides precoated with poly-L-ornithine (Ibidi GmbH). After 24 hr, cells were incubated for 1 hr with Cy5-labelled peptide-PMO conjugates (1 μM or 5 μM) diluted in serum free Opti-MEM. At 10 min to end of 1 hr incubation, Hoechst (1:1000 dilution) was added to each well.

SMN2 [3] = experiment: Full-length SMN2 RNA in tissues of transgenic SOD1+/- SMN2+/- mice by RT-qPCR; format: in vivo; settings: 8 mg/kg/week for 5 weeks, tail vein injection, 7 days after final administration, mean±SEM, versus saline-treated control
Experimental: FIG. 6. SMN upregulation in SOD1^G93A mice. A, administration regime. B, Full length (FL) SMN2 levels in brain, spinal cord (S. cord), kidney and quadriceps (Quad) as determined by RT-qPCR in untreated mice (left hand columns) and mice treated with SEQ ID NO:6-PMO conjugate (right hand columns) after administration at a dose of 8 mg/kg weekly for five weeks. *, p<0.05; **, p<0.001; ***, p<0.0001 cf. saline-treated group.
A peptide consisting of the amino acid sequence of SEQ ID NO:6 was conjugated to the PMO antisense oligonucleotide of SEQ ID NO:9 via a non-reducible thioether (thiol-maleimide) bond as described in Example 1. […] Transgenic SOD1^+/− SMN2^+/− mice (n=5) at P60 were treated with Ac-HA2-ApoE(133-150)-PMO conjugate at 8 mg/kg/week for 5 weeks via tail vein injection. Age-matched control mice (n=6) were given saline. Tissues (brain, spinal cord, kidney and quadriceps) were harvested 7 days after final administration. The level of full-length SMN2 RNA was measured using RT-qPCR as above. The level of full-length SMN2 was normalised to mouse HPRT1 with forward primer sequence 5′-[…]-3′ (SEQ ID NO:14) and reverse primer sequence 5′[…]-3′ (SEQ ID NO:15). Data were expressed as mean±SEM. The statistical significances between saline-treated and Ac-HA2-ApoE(133-150)-PMO-treated groups were determined using the Student's t test. […]

[4] = format: in vivo, mice; settings: 8 mg/kg; dose escalation at 5, 8 and 10 mg/kg; data not shown
[5] = intrathecal injection; cited from earlier work

Substance	exon-7 inclusion activity, change in words (SMN2 [1]; 0.5 μM and 1 μM, versus comparator)	effect on cell viability (fibroblasts; at 10 μM)	effect on cell viability (fibroblasts; up to 5 μM)	intracellular fluorescence pattern [2]	cellular uptake on addition of endosomal escape domain HA2 [2]	level of exon-7 inclusion activity (full length SMN2/HPRT1, normalised to untreated control set to 1) (SMN2 [1]; 0.5 μM)	level of exon-7 inclusion activity (full length SMN2/HPRT1, normalised to untreated control set to 1) (SMN2 [1]; 1 μM)	level of full length SMN2 RNA (normalised to mouse HPRT1) (SMN2 [3]; brain)	level of full length SMN2 RNA (normalised to mouse HPRT1) (SMN2 [3]; spinal cord)	tolerability [4]	side effects such as postprocedural headache and backpain, share of adult patients [5]
Ac-GLFHAIAHFIHGGWH-X-LRKLRKRLLR-X-C-PMO [HA2-ApoE(141-150)-PMO]	significant increase in the activity	decrease in cell viability	None of the P-PMO conjugates had a significant effect on cell viability	higher fluorescence intensity with a more diffused pattern	significantly enhanced cellular uptake	–	–	–	–	–	–
Ac-GLFHAIAHFIHGGWH-X-LRVRLASHLRKLRKRLLR-X-C-PMO [HA2-ApoE(133-150)-PMO]	–	decrease in cell viability	None of the P-PMO conjugates had a significant effect on cell viability	higher fluorescence intensity with a more diffused pattern	significantly enhanced cellular uptake	2.02±0.12	2.8±0.13	1.19±0.06	1.56±0.1	well-tolerated without any signs of adverse effects	–
TCACTTTCATAATGCTGG (chemistry not given here) [Nusinersen, FDA-approved antisense oligonucleotide for the treatment of spinal muscular atrophy]	–	–	–	–	–	–	–	–	–	–	32%
